Results reported in ChEMBL document CHEMBL1133033, “Targeting the dimerization interface for irreversible inhibition of HIV-1 protease” (Bioorg Med Chem Lett, 2000).
Positions of bridges follow the written chain, without caps; N, C: chain ends. Non-standard residues stand in square brackets, D forms with d. Residues, ends and D or L forms follow the SMILES beside them. Chains are numbered I, II in the order given. ξ: configuration not given here. *: point of attachment. S(3-COOH-4-NO2-phenyl) = O=C(O)c1cc(S*)ccc1[N+](=O)[O-]; C16 diacid = O=C(O)CCCCCCCCCCCCCCC(=O)*; Thr(3ξ) = CC(O)[C@H](N)C(=O)O; ξP = O=C(O)C1CCCN1

Legend:
[1] = target: Human immunodeficiency virus type 1 protease (Human immunodeficiency virus 1) (UniProt Q72874); assay: Inhibitory concentration of compound resulting in half-maximal inactivation of HIV-1 protease
[2] = target: Human immunodeficiency virus type 1 protease (Human immunodeficiency virus 1) (UniProt Q72874); assay: Maximal inactivation rate of compound tested against HIV-1 protease

CC[C@H](C)[C@H](NC(=O)[C@H](CCC(N)=O)NC(=O)C1CCCN1C(=O)CCCCCCCCCCCCCCC(=O)N[C@@H](CO)C(=O)N[C@H](C(=O)N[C@@H](CC(C)C)C(=O)N[C@@H](CC(N)=O)C(=O)N[C@@H](CSSc1ccc([N+](=O)[O-])c(C(=O)O)c1)C(=O)O)[C@@H](C)O)C(=O)N[C@H](C(=O)N[C@@H](CC(C)C)C(=O)N[C@@H](Cc1c[nH]c2ccccc12)C(=O)O)C(C)O (some centres not stated) (I: [ξP]QI[Thr(3ξ)]LW-OH / II: STLNC(S(3-COOH-4-NO2-phenyl))-OH; linker I:N-II:N via C16 diacid)
K inact [1]: 3.7 µM
Vinact [2]: 0.012 min⁻¹
